{
  "source": "paper PMC3538728",
  "about": "(PLoS ONE, 2013)",
  "biological_target": "T1, γ-secretase (Homo sapiens, UniProt P49768)",
  "T1 construct": "γ-Secretase is composed of four subunits: Aph1, Pen2, glycosylated nicastrin, and endo-proteolyzed presenilin as the catalytic core; endogenous in cells; host or cells: HeLa S3 (ATCC CCL-2.2)",
  "T1 sequence (Q9NZ42 whole entry, other chains not shown)": "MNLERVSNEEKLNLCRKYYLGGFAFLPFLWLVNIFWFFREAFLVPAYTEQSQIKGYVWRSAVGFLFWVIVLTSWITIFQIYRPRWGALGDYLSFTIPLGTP",
  "T1 sequence (Q92542 34-709, other chains not shown, further chain)": "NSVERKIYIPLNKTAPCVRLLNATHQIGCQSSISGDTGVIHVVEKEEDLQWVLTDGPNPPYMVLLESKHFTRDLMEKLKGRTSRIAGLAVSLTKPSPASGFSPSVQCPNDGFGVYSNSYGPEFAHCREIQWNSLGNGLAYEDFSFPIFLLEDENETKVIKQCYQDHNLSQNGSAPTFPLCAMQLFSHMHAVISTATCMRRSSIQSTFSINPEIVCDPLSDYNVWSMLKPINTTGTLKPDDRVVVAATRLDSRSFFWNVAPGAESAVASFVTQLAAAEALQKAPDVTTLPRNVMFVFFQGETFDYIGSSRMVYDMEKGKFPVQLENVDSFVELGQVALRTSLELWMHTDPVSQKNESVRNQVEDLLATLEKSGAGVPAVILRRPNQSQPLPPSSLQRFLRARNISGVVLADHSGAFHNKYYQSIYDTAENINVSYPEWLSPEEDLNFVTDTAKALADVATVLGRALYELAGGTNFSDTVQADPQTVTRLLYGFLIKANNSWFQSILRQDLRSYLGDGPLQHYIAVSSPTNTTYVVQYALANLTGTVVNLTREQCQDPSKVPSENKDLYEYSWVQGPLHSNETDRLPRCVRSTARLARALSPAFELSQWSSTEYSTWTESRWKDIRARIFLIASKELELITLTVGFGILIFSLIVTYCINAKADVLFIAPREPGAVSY",
  "T1 sequence (Q96BI3 whole entry, other chains not shown, further chain)": "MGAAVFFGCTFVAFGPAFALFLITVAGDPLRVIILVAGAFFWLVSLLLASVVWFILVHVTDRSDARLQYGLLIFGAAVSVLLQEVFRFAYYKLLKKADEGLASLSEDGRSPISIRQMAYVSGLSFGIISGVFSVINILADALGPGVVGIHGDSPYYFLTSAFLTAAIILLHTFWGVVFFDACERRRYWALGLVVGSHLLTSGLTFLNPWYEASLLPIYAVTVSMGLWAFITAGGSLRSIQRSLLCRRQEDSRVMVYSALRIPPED",
  "assay": "Aβ 1–40 secretion from HeLa cells in the presence of DAPT (sandwich ELISA), dose-response fits",
  "type": "cell-based",
  "source_text": "HeLa cells have been transfected using Lipofectamine LTX™ reagent following the manufacturer instructions. The transfection protocol and concentration of pSG5-cDNAwtC99 plasmid have been optimized to achieve desired assay sensitivity, a gradual increase in the substrate expression level, and a smooth transition from biphasic to the standard dose-response curves (Figs. 2–3). Initially concentration of pSG5-cDNAwtC99 plasmid have been optimized by western blots using anti-flag αM2 monoclonal antibody as described in our previous study. The cells were transfected in 24-well plates. The day before transfection the cells were trypsinized and counted. About 0.85×10^5 cells were seeded per well in 0.5 ml of complete growth medium to achieve about 75% confluent cultures on the day of transfection. Before the transfection old medium was removed and replaced with fresh 0.5 ml of complete growth medium. For transfection 5X DNA concentration was diluted in 500 µl of Opti-MEM®I Reduced Serum Media and mixed with 0.7 µl of Lipofectamine LTX™ Reagent. The solution was gently mixed and incubated for 30 minutes at room temperature to form DNA- Lipofectamine LTX™ Reagent complexes. Following the 30 min incubation, 100 µl of the DNA- Lipofectamine LTX™ Reagent complexes was added directly to each well containing cells and mixed gently by rocking the plate back and forth. The cells were incubated at 37°C in a CO2 incubator for 18 hours.\nFresh medium was added 18 hours after the transfection (0.5 ml per well), to prepare the cells for incubation with DAPT [18], [51]. Different concentrations of DAPT were prepared in DMSO, and added to the cells so that the final DMSO concentration in the culture was 0.1% (v/v). DMSO vehicle represents 0 nM DAPT. The cells were incubated with DAPT at given concentrations for 15 hours.\nThe assay linear response is in the range from 6–125 pM of Aβ 1–40. The assays were performed by closely following the manufacturer instructions. […] Each well was filled with 50 µl of the antibody conjugate solution and 50 µl of sample. The Aβ 1–40 standards were supplied by the manufacturer and prepared in parallel with other samples. All of the prepared wells were wrapped in aluminum foil and incubated overnight at 4°C with gentle mixing. The next day each well was washed five times with 300 µl of wash solution. After each […] wash, the wash solution was poured out and the wells were dried by tapping the plates on an absorbing paper. Washed wells were filled with 100 µl of the enzyme conjugate solution, covered, and incubated for 30 min at room temperature with shaking. The washing procedure was repeated once again to remove excess of the enzyme-conjugate. Next 100 µl of the substrate solution was added in each well in dark, and kept for 30 minutes covered at room temperature. The reaction was quenched by adding 50 µl of stop solution to each well, and within 15 min the signal intensity was read by measuring absorption at 450 nm.\nAll experimental results were analyzed using MicroCal Origin 7.0 program, nonlinear regressions, and equations that represent specific mechanism. All results are reported as the best fit value ± standard error with two-sigma confidence intervals shown in square brackets (i.e. x±y [p, q]). Briefly, the standard error indicates random errors (i.e. precision) for each method, while the two sigma confidence intervals indicate the ability of given experimental setup to provide information about specific best-fit parameter. The random error for presented experiments is low, as indicated by a low scatter from the best fit values. The sharp confidence intervals can be obtained by taking a large number of independent data points that cover all segments that define the measured functions. […]",
  "key": {"[1]": {"settings": "HeLa, 250 ng/mL pSG5-cDNAwtC99, eqn. 2"}, "[2]": {"settings": "HeLa, 400 ng/mL pSG5-cDNAwtC99, eqn. 2"}, "[3]": {"settings": "HeLa, 600 ng/mL pSG5-cDNAwtC99, eqn. 2"}, "[4]": {"settings": "HeLa, 800 ng/mL pSG5-cDNAwtC99, eqn. 2"}, "[5]": {"settings": "average over 0-92 ng/mL pSG5-cDNAwtC99"}, "[6]": {"settings": "untransfected HeLa cells, eqn. 1, six free fit parameters"}, "[7]": {"settings": "untransfected HeLa cells, eqn. 1 with IA and MI as constants"}, "[8]": {"settings": "untransfected HeLa cells, measured separately, taken as constant in regression"}},
  "note": "Where “and” joins values, the source holds several entries; their conditions need not be identical. Equal entries are not always repeated. Where two headings read alike, the source gives them in different places. Marks after values point to notes of the source that are not given here.",
  "data": [
    {"smiles": "C[C@H](NC(=O)Cc1cc(F)cc(F)c1)C(=O)N[C@H](C(=O)OC(C)(C)C)c1ccccc1", "note": "[DAPT, N-[N-(3,5-difluorophenacetyl)-L-alanyl]-S-phenylglycine t-butyl ester]", "values": [
      {"measurement": "Maximal Inhibition, MI", "setting": "HeLa, 92 ng/mL pSG5-cDNAwtC99, eqn. 1", "value": "1.9 ± 0.6", "unit": "pM per 10^6 cells"},
      {"measurement": "Initial Activity, IA", "setting": "HeLa, 92 ng/mL pSG5-cDNAwtC99, eqn. 1, activity at zero DAPT", "value": "119 ± 4", "unit": "pM per 10^6 cells"},
      {"measurement": "EC50", "setting": "HeLa, 92 ng/mL pSG5-cDNAwtC99, eqn. 1, read-out: Activation EC50", "value": "178 ± 45", "unit": "nM"},
      {"measurement": "IC50", "setting": "HeLa, 92 ng/mL pSG5-cDNAwtC99, eqn. 1, read-out: Inhibition IC50", "value": "661 ± 80", "unit": "nM"},
      {"measurement": "Inhibition Hill's coef", "setting": "[1]", "value": "1.02 ± 0.07"},
      {"measurement": "Maximal Inhibition, MI", "setting": "[1]", "value": "-0.9 ± 0.4", "unit": "pM per 10^6 cells"},
      {"measurement": "Initial Activity, IA", "setting": "HeLa, 250 ng/mL pSG5-cDNAwtC99, eqn. 2, activity at zero DAPT", "value": "229 ± 4", "unit": "pM per 10^6 cells"},
      {"measurement": "IC50", "setting": "HeLa, 250 ng/mL pSG5-cDNAwtC99, standard dose-response, eqn. 2, read-out: Inhibition IC50", "value": "126 ± 9", "unit": "nM"},
      {"measurement": "Inhibition Hill's coef", "setting": "[2]", "value": "0.95 ± 0.04"},
      {"measurement": "Maximal Inhibition, MI", "setting": "[2]", "value": "2.0 ± 0.9", "unit": "pM per 10^6 cells"},
      {"measurement": "Initial Activity, IA", "setting": "HeLa, 400 ng/mL pSG5-cDNAwtC99, eqn. 2, activity at zero DAPT", "value": "190 ± 2", "unit": "pM per 10^6 cells"},
      {"measurement": "IC50", "setting": "HeLa, 400 ng/mL pSG5-cDNAwtC99, standard dose-response, eqn. 2, read-out: Inhibition IC50", "value": "110 ± 8", "unit": "nM"},
      {"measurement": "Inhibition Hill's coef", "setting": "[3]", "value": "0.84 ± 0.03"},
      {"measurement": "Maximal Inhibition, MI", "setting": "[3]", "value": "-4 ± 2", "unit": "pM per 10^6 cells"},
      {"measurement": "Initial Activity, IA", "setting": "HeLa, 600 ng/mL pSG5-cDNAwtC99, eqn. 2, activity at zero DAPT", "value": "140 ± 4", "unit": "pM per 10^6 cells"},
      {"measurement": "IC50", "setting": "HeLa, 600 ng/mL pSG5-cDNAwtC99, standard dose-response, eqn. 2, read-out: Inhibition IC50", "value": "98 ± 6", "unit": "nM"},
      {"measurement": "Inhibition Hill's coef", "setting": "[4]", "value": "0.61 ± 0.07"},
      {"measurement": "Maximal Inhibition, MI", "setting": "[4]", "value": "2 ± 0.8", "unit": "pM per 10^6 cells"},
      {"measurement": "Initial Activity, IA", "setting": "HeLa, 800 ng/mL pSG5-cDNAwtC99, eqn. 2, activity at zero DAPT", "value": "90 ± 1", "unit": "pM per 10^6 cells"},
      {"measurement": "IC50", "setting": "HeLa, 800 ng/mL pSG5-cDNAwtC99, standard dose-response, eqn. 2, read-out: Inhibition IC50", "value": "89 ± 5", "unit": "nM"},
      {"measurement": "mode of inhibition", "setting": "at saturating C99 substrate", "value": "noncompetitive inhibitor"},
      {"measurement": "Activation Hill coef., average", "setting": "[5]", "value": "1.0 ± 0.1"},
      {"measurement": "Inhibition Hill's coef, average", "setting": "[5]", "value": "2.1±0.2"},
      {"measurement": "Maximal Inhibition, MI, average", "setting": "[5]", "value": "0.5 ± 0.2", "unit": "pM per 10^6 cells"},
      {"measurement": "IC50", "setting": "average over 0-92 ng/mL pSG5-cDNAwtC99 (all biphasic curves), read-out: Inhibition IC50, average", "value": "534 ± 53", "unit": "nM"},
      {"measurement": "EC50", "setting": "average over 0-92 ng/mL pSG5-cDNAwtC99 (all biphasic profiles), read-out: Activation EC50, average", "value": "111 ± 41", "unit": "nM"},
      {"measurement": "Maximal Activity, MA, average", "setting": "average over 0-92 ng/mL pSG5-cDNAwtC99 (biphasic curves)", "value": 189, "unit": "pM per 10^6 cells"},
      {"measurement": "Maximal Inhibition, MI, average", "setting": "average over 250-800 ng/mL pSG5-cDNAwtC99", "value": "-0.5 ± 0.6", "unit": "pM per 10^6 cells"},
      {"measurement": "IC50", "setting": "average over 250-800 ng/mL pSG5-cDNAwtC99 (standard dose-response curves), read-out: Inhibition IC50, average", "value": "106 ± 16", "unit": "nM"},
      {"measurement": "potential to activate γ-secretase activity (MA vs. IA)", "setting": "if binding only at the activation site, 31 pM vs. 196 pM Aβ 1–40 per 10^6 cells", "value": "~7", "unit": "fold"},
      {"measurement": "cDNAwtC99 required to reach activation by DAPT", "setting": "transfection without DAPT giving same Aβ 1-40 secretion as endogenous substrate at 33 nM DAPT", "value": 70, "unit": "ng/mL"},
      {"measurement": "cDNAwtC99 required to reach activation by DAPT", "setting": "transfection without DAPT giving same Aβ 1-40 secretion as endogenous substrate at 100 nM DAPT", "value": 120, "unit": "ng/mL"},
      {"measurement": "cDNAwtC99 required to reach activation by DAPT", "setting": "transfection without DAPT giving same Aβ 1-40 secretion as endogenous substrate at 333 nM DAPT", "value": 118, "unit": "ng/mL"},
      {"measurement": "cDNAwtC99 required to reach activation by DAPT", "setting": "transfection without DAPT giving same Aβ 1-40 secretion as endogenous substrate at 500 nM DAPT", "value": 100, "unit": "ng/mL"},
      {"measurement": "cDNAwtC99 required to reach activation by DAPT", "setting": "transfection without DAPT giving same Aβ 1-40 secretion as endogenous substrate at 1000 nM DAPT", "value": 16, "unit": "ng/mL"},
      {"measurement": "activity on Endogenous substrate (Aβ 1-40 secreted)", "setting": "untransfected HeLa cells, 33 nM DAPT", "value": 81.1, "unit": "pM per 10^6 cells"},
      {"measurement": "activity on Endogenous substrate (Aβ 1-40 secreted)", "setting": "untransfected HeLa cells, 100 nM DAPT", "value": "132 pM per 10^6 cells and 132.0 pM per 10^6 cells"},
      {"measurement": "activity on Endogenous substrate (Aβ 1-40 secreted)", "setting": "untransfected HeLa cells, 333 nM DAPT", "value": 129.0, "unit": "pM per 10^6 cells"},
      {"measurement": "activity on Endogenous substrate (Aβ 1-40 secreted)", "setting": "untransfected HeLa cells, 500 nM DAPT", "value": 111.6, "unit": "pM per 10^6 cells"},
      {"measurement": "activity on Endogenous substrate (Aβ 1-40 secreted)", "setting": "untransfected HeLa cells, 1000 nM DAPT", "value": 43.0, "unit": "pM per 10^6 cells"},
      {"measurement": "observed maximal activity, Aβ 1–40 secreted", "setting": "untransfected HeLa cells, at 108 nM DAPT", "value": 145, "unit": "pM per 10^6 cells"},
      {"measurement": "Activation Hill's coef", "setting": "[6]", "value": "1.09 ± 0.4"},
      {"measurement": "Inhibition Hill's coef", "setting": "[6]", "value": "1.9±0.5 and 1.92 ± 0.5"},
      {"measurement": "Activation Hill's coef", "setting": "[7]", "value": "1.09 ± 0.16"},
      {"measurement": "Inhibition Hill's coef", "setting": "[7]", "value": "1.92 ± 0.25"},
      {"measurement": "Maximal Activity, MA", "setting": "[7]", "value": "196 ± 35", "unit": "pM per 10^6 cells"},
      {"measurement": "EC50", "setting": "untransfected HeLa cells, eqn. 1 with IA and MI as constants, read-out: Activation EC50", "value": "72 ± 9", "unit": "nM"},
      {"measurement": "IC50", "setting": "untransfected HeLa cells, eqn. 1 with IA and MI as constants, read-out: Inhibition IC50", "value": "472 ± 35", "unit": "nM"},
      {"measurement": "Initial Activity, IA", "setting": "[8]", "value": "31 ^c pM per 10^6 cells"},
      {"measurement": "Maximal Inhibition, MI", "setting": "[8]", "value": "0 ^c pM per 10^6 cells"},
      {"measurement": "DAPT concentration at which maximal activity is observed", "setting": "untransfected HeLa cells, peak of biphasic curve", "value": 108, "unit": "nM"}
    ]}
  ]
}
